Experiment: Modulation of human wild-type APP695 expressed in SH-SY5Y cells assessed as inhibition of amyloid beta (1 to 42 residues) production measured after 24 hrs by ELISA

| SMILES | IC50 |
| --- | --- |
| O=C(CN1CCCCC1)Nc1cc(CN2CCOCC2)cc(Nc2ccnc3cc(Cl)ccc23)c1 | 7.1 µM |
| Clc1ccc2c(Nc3cc(CN4CCOCC4)cc(NCCN4CCCCC4)c3)ccnc2c1 | 4.9 µM |
| CCN(CC)Cc1cc(NC(=O)CN2CCCCC2)cc(Nc2ccnc3cc(Cl)ccc23)c1 | 2.8 µM |
| CCN(CC)Cc1cc(NCCN2CCCCC2)cc(Nc2ccnc3cc(Cl)ccc23)c1 | 13.8 µM |
| CN1CCN(c2cc(Nc3ccnc4cc(Cl)ccc34)cc(N3CCN(C)CC3)c2)CC1 | 1.9 µM |
| Oc1c(CN2CCCC2)cc(Nc2ccnc3cc(Cl)ccc23)cc1CN1CCCC1 | 11.2 µM |
| CCN(CC)Cc1cc(Nc2ccnc3cc(Cl)ccc23)ccc1O [Amodiaquin] | 5.4 µM |
| CN(C)CCN(C)Cc1cc(NC(=O)CN2CCCCC2)cc(Nc2ccnc3cc(Cl)ccc23)c1 | 2.9 µM |
| c1ccc(Nc2cc(CNCCN3CCCCC3)cc(CNCCN3CCCCC3)c2)c(CN2CCCCC2)c1 | 6 µM |

The next lines start with the values.

| IC50 | SMILES |
| --- | --- |
| > 10 µM | CN(C)Cc1ccccc1Nc1cc(C(=O)NCCN2CCCCC2)cc(C(=O)NCCN2CCCCC2)c1 |
| 4.7 µM | O=C(NCCN1CCCCC1)c1cc(Nc2ccccc2CN2CCCCC2)cc(C(=O)NCCN2CCCCC2)c1 |
| 9.4 µM | O=C(NCCN1CCCCC1)c1cc(C(=O)NCCN2CCCCC2)cc(-c2ccccc2CN2CCCCC2)c1 |
| 12.8 µM | CCN(CC)CCC[C@@H](C)Nc1ccnc2cc(Cl)ccc12 [Aralen] |
| 7.9 µM | c1ccc(Nc2cc(CNCCN3CCCCC3)cc(CNCCN3CCCCC3)c2)c(CN2CCOCC2)c1 |
| 10.4 µM | CCN(CC)Cc1cccc(Nc2ccnc3cc(Cl)ccc23)c1 |
